Like-named read-outs stand apart in the source and are kept apart here.
Tests used:
[1] = test system: HT1080 fibrosarcoma cells; assay: Oris cell migration assay; format: cell-based; conditions: 10 μM peptide
Experimental: HT1080 fibrosarcoma cells (ATCC# CCL-121) were cultured to 80% confluence in growth medium (MEM (Earle’s salts + L-glutamine) 10% FBS, 1:100 non-essential amino acids (NEAA), 1 mM sodium pyruvate, 500 U/ml penicillin-streptomycin, and 1% gentamycin; Life Technologies). Cells were plated in an Oris Cell Migration Assay (Platypus Technologies) 96-well plate at 10^5 cells per well, following the manufacturer’s protocol. The next day, the growth medium was removed, the wells rinsed with PBS, and the cells were incubated in assay medium MEM (Earle’s salts + L-glutamine) containing 10% heat-inactivated FBS, 1:100 NEAA, 1 mM sodium pyruvate, 500U/ml penicillin-streptomycin, and 1% gentamycin in the presence or absence of inhibitors for 24 h at 37°C and 5% CO2. After incubation cells were rinsed with PBS (calcium and 20 mM HEPES, pH 7.4, as per the manufacturer’s protocol), and incubated with the Live / Dead Cell Stain Kit containing 2 μM calcein AM and 4 μM ethidium homodimer (EthD-1) for 30 min at 37°C and 5% CO2. Fluorescence was then measured at 485/528 nm excitation/emission for calcein AM, and 530/645 nm for EthD-1. […]
Fig 2 Effect of HIV-1 TAT47-57 peptide on cell migration of fibrosarcoma HT1080 cells. Cells were incubated with either 10 μM of peptide or vehicle (water) for 24 h at 37°C and cell migration was measured as described in “Materials and Methods”. […]

[2] = target: T1, soluble human furin (Homo sapiens, UniProt P09958); assay: furin enzyme assay with fluorogenic substrate pERTKR-mca; format: biochemical; conditions: for furin inhibition: peptide at 100 μM, 100 μM pERTKR-mca, Fig 1
T1 construct: Soluble human furin was purified from the conditioned medium; made in house; host or cells: CHO DG44 cells (stably transfected, methotrexate-amplified); purified from conditioned medium
Experimental: Soluble human furin was purified from the conditioned medium of stably-transfected, methotrexate-amplified CHO DG44 cells, as previously described. […] The HIV-1 TAT47-57 peptide was purchased from Creative Peptides (Shirley, NY). The Chariot reagent was purchased from Active Motif (Carlsbad, CA). […] The fourth peptide (W4-[R5]; N-acetyl-WWWW-[KRRRRR]) is N-terminally acetylated.
The furin assay was performed in 96-well polypropylene microtiter plates in a final volume of 50 μl, containing 100 mM HEPES, pH 7.0, 5 mM CaCl2, 0.1% Brij 35, 0.1% NaN3, and 0.1 mg/ml BSA. The substrate p-Glu-Arg-Thr-Lys-Arg-4-methylcoumaryl-7-amide (pERTKR-mca; Peptide Institute, Lexington, KY) was used at a final concentration of 100 μM. Furin was used at a final concentration of 20 nM. Reaction mixtures were incubated at 37°C and fluorescence measurements (380 nm excitation, 460 nm emission) were taken under kinetic conditions every minute for 60 min in a SpectraMax M2 microplate reader. […] After a 30-min preincubation at room temperature, 100 μM of pERTKR-methylaminocoumarin (mca) was added, and residual enzyme activities were monitored by measuring mca fluorescence intensity. Data were analyzed using Prism 5 as described previously. Due to cost considerations, Ki determinations were not performed for the HIV TAT peptide or for the Chariot reagent.
Soluble human furin, pre-incubated for 20 min at room temperature in the presence of (a) HIV-1 TAT (47–57) or (b) Chariot peptide, was tested at the specified concentrations. Furin activity was assessed by measuring the release of the fluorescent mca product from the fluorogenic substrate, pERTKR-mca.

[3] = test system: intracellular convertase activity in CHO-GRAPfurin cells; assay: SEAP activity assay (GRAPfurin Golgi reporter); format: cell-based; conditions: 1 μM, 20–24 h at 37 °C
Experimental: CHO-GRAPfurin cells expressing the hybrid reporter protein GRAPfurin, consisting of the secreted alkaline phosphatase (SEAP) protein fused to a Golgi retention signal and a specific furin recognition/cleavage site, […] The medium was collected, centrifuged, and heated for 30 min at 65°C to inactivate non-relevant phosphatases. To test SEAP activity, 2.5 μl of heated medium was mixed with 100 μl of assay buffer (100 mM Tris-HCl, pH 10, 100 mM NaCl, 5 mM MgCl2) and 100 μl of 36 μM 4-methylumbelliferyl phosphate (MUP), a phosphatase substrate, made in 50 mM Tris-HCl, pH 10. Fluorescence was measured every 20 seconds after excitation at 365 nm and recording emission at 460 nm at 37°C for 1 h. Since SEAP released from the tethered furin reporter is secreted, SEAP levels in the medium are proportional to the activity of Golgi furin [24, 25]. The experiments were independently repeated three times using triplicate wells per condition.
Fig 4 Cyclic polyarginine peptides inhibit cellular convertase activity. (a) CHO cells were incubated with each compound at 1 μM for 24 h at 37°C, and cell viability was monitored by incubation for 4 h with WST-1. […] Secreted alkaline phosphatase activity was measured in the medium. […]

[4] = target: T1, soluble human furin; conditions: cited from earlier work; for Ki: furin

T1 sequence (P09958 108-715 limits assumed): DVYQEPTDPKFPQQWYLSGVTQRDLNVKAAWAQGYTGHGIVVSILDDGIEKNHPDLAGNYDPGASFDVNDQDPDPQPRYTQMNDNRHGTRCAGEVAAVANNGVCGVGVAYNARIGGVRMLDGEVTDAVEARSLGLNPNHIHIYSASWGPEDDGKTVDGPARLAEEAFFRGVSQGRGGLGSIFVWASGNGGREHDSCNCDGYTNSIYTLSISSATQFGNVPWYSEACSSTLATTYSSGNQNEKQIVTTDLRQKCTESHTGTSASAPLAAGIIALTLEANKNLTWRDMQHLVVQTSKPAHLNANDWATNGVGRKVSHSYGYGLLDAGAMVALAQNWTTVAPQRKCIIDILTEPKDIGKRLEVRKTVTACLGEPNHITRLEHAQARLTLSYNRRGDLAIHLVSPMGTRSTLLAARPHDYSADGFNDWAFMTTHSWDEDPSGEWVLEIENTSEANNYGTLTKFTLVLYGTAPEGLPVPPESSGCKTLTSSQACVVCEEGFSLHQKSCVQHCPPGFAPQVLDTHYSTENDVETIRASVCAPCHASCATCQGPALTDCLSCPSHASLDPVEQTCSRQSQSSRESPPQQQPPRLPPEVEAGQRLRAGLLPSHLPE

| Molecule | furin inhibition [2] | Ki [2] [nM] | inhibition constants against furin and other convertases [4] | Ki [4] [nM] | other results |
| --- | --- | --- | --- | --- | --- |
| N=C(N)NCCC[C@H](NC(=O)[C@H](CCCNC(=N)N)NC(=O)[C@H](CCCNC(=N)N)NC(=O)[C@H](CCC(N)=O)NC(=O)[C@H](CCCNC(=N)N)NC(=O)[C@H](CCCNC(=N)N)NC(=O)[C@H](CCCCN)NC(=O)[C@H](CCCCN)NC(=O)[C@H](CCCNC(=N)N)NC(=O)CNC(=O)[C@@H](N)Cc1ccc(O)cc1)C(=O)O [HIV-1 TAT47-57, YGRKKRRQRRR] | nearly complete | – | – | – | toxicity to HT1080 cells [1]: non-toxic; inhibition at 10 µM ([2]; read-out: furin inhibition): ~60% |
| CC(=O)N[C@@H](Cc1c[nH]c2ccccc12)C(=O)N[C@@H](Cc1c[nH]c2ccccc12)C(=O)N[C@@H](Cc1c[nH]c2ccccc12)C(=O)N[C@@H](Cc1c[nH]c2ccccc12)C(=O)NCCCC[C@@H]1NC(=O)[C@H](CCCNC(=N)N)NC(=O)[C@H](CCCNC(=N)N)NC(=O)[C@H](CCCNC(=N)N)NC(=O)[C@H](CCCNC(=N)N)NC(=O)[C@H](CCCNC(=N)N)NC1=O [W4-[R5], N-acetyl-WWWW-[KRRRRR]] | – | 100 ± 140 | – | – | inhibition of intracellular convertase activity (SEAP release) [3]: most effective compound in cells |
| N=C(N)NCCC[C@@H]1NC(=O)[C@H](Cc2c[nH]c3ccccc23)NC(=O)[C@H](CS)NC(=O)[C@H](Cc2c[nH]c3ccccc23)NC(=O)[C@H](CCCNC(=N)N)NC(=O)[C@H](Cc2c[nH]c3ccccc23)NC(=O)[C@H](CCCNC(=N)N)NC(=O)[C@H](Cc2c[nH]c3ccccc23)NC(=O)[C@H](CCCNC(=N)N)NC(=O)[C@H](Cc2c[nH]c3ccccc23)NC1=O [[W5R4C], [WRWRWRWRWC]] | – | 340 ± 20 | – | – | – |
| KETWWETWWTEWSQPKKKRKV [Chariot] | ~ 60% | – | – | – | – |
| Nona-D-arginine amide | – | – | nanomolar range | 1.3 ± 2 | – |
| hexa-D-arginine amide | – | – | nanomolar range | 106 ± 10 | – |

Reference: paper PMC4482483, “Cationic Cell-Penetrating Peptides Are Potent Furin Inhibitors” (PLoS ONE, 2015)
